US5068247A, “2-aminopentanoic acid compounds and their use as immunosuppressants” (priority 1989, dated 1991)
Converted amounts (≈) assume the structure as drawn.

Experiments:
[1] = cytotoxicity to cultured tumor cell line K562; details: human, k562 cells, Suppression
Description: (§1) Cytotoxicity to various human tumor cell lines was examined as follows:
(§2) Cells of human cell lines, K562, MOLT4, U937 and HL60 were respectively suspended to the concentration of 4×10^5 cells/ml in the RPMI1640 culture medium supplemented with 20% FCS. Fifty μl of each suspension was added to each well of a 96-well microtest plate to which 50 μl of the test solution had been added. After culturing the suspension at 37° C. in an atmosphere of 5% carbon dioxide for 72 hours, the absorbancy at 570 nm was measured in the same way as with the colorimetry using MTT in Experiment Example 1, and the percent suppression was calculated by the following formula, which was used as an index of cytotoxicity.

K562 = test: cytotoxicity to cultured tumor cell line K562
Description: as §1, §2

[2] = cytotoxicity to cultured tumor cell line U937; format: cell-based, human; details: human, u937 cells; 0.1 μg/ml; read-out: Suppression
Description: as §1, §2

U937 = test: cytotoxicity to cultured tumor cell line U937; format: cell-based, human
Description: as §1, §2

[3] = cytotoxicity to cultured tumor cell line HL60; details: human, hl60 cells, Suppression
Description: as §1, §2

HL60 = test: cytotoxicity to cultured tumor cell line HL60
Description: as §1, §2

[4] = test system: mouse allogenic MLR (BALB/c mouse spleen cells stimulated with C57BL/6 mouse spleen cells); test: mouse allogenic mixed lymphocyte reaction (MLR), 3H-thymidine uptake; format: cell-based
Description: The immunosuppressive activity of the compounds was assayed on the basis of mouse allogenic mixed lymphocyte reaction (hereinafter sometimes abbreviated as MLR). Mouse allogenic MRL was carried out using a mixed culture of BALB/c mouse (H-2^d) spleen cells as the responder cells and mitomycin C-treated C57BL/6 ([…]) mouse spleen cells as the stimulator cells in equal amounts.
The responder cells were prepared as follows:
The spleen was resected from 5- to 6-week-old BALB/c mice, and single cell suspension of spleen cells was prepared by using the RPMI1640 culture medium (containing 60 μg/ml of kanamycin sulfate, 2 mM of L-glutamine, 10 mM of N-2-hydroxyethylpiperazine-N'-2-ethanesulphonate (HEPES) and 0.1% sodium hydrogencarbonate) to which heat-inactivated fetal calf serum (hereinafter sometimes abbreviated as FCS) had been added to 5%. After hemolytic treatment, the cell suspension was adjusted to a concentration of 10^7 cells/ml with the RPMI1640 culture medium supplemented with 10^-4 M 2-mercapto-ethanol and 20% FCS, and was used as the responder cell suspension.
The stimulator cells were prepared as follows: The spleen was resected from 5- to 6-week-old male C57BL/6 mice, and a single cell suspension of spleen cells was prepared by using the RPMI1640 culture medium. After hemolytic treatment, the cells were treated with 40 μg/ml of mitomycin C at 37° C. for 60 minutes. After washing three times, the cell suspension was adjusted to a concentration of 10^7 cells/ml with the RPMI1640 culture medium supplemented with 10^-4 M 2-mercapto-ethanol and 20% FCS, and was used as the stimulator cell suspension.
The blastogenesis of lymphocytes was assayed using ^3 H-thymidine uptake as an index. That is, after termination of culture, 18.5 KBq/well of ^3 H-thymidine was added thereto and the suspension was cultured for 4 hours. Cells were harvested by a cell-harvester, and the radioactivity incorporated into the cells was determined by a liquid scintillation counter, which was used as an index of blastogenesis of lymphocytes in the mouse allogenic MLR. The suppression of the mouse allogenic MLR was evaluated by calculating the percent suppression by the following formula.
The test substance dissolved in methanol was diluted with the RPMI1640 culture medium and put to use.

[5] = cytotoxicity to cultured tumor cell line MOLT4; format: cell-based, human; details: human, molt4 cells, read-out: Suppression
Description: as §1, §2

MOLT4 = test: cytotoxicity to cultured tumor cell line MOLT4; format: cell-based, human
Description: as §1, §2

CCCCCCC(CCCCCC/C=C/C[C@@H](O)[C@H](O)[C@@](N)(CO)C(=O)O)=NO [Example 4]
cytotoxicity at 72 h ([1]; 0.1 μg/ml): 0%
cytotoxicity at 72 h ([1]; 1 μg/ml): 0.6%
cytotoxicity at 72 h ([1]; 10 μg/ml): 0%
Absorbancy (K562; 0.1 μg/ml): 1.145 ± 0.038
Absorbancy (K562; 1 μg/ml): 1.129 ± 0.021
Absorbancy (K562; 10 μg/ml): 1.148 ± 0.032
cytotoxicity at 72 h [2]: 0%
Absorbancy (U937; 0.1 μg/ml): 0.765 ± 0.033
Absorbancy (U937; 1 μg/ml): 0.744 ± 0.017
Absorbancy (U937; 10 μg/ml): 0.750 ± 0.048
cytotoxicity at 72 h ([3]; 0.1 μg/ml): 6%
cytotoxicity at 72 h ([3]; 1 μg/ml): 0%
cytotoxicity at 72 h ([3]; 10 μg/ml): 8.2%
Absorbancy (HL60; 0.1 μg/ml): 1.401 ± 0.028
Absorbancy (HL60; 1 μg/ml): 1.493 ± 0.031
Absorbancy (HL60; 10 μg/ml): 1.368 ± 0.087
3H-thymidine uptake ([4]; 0.0001 μg/ml, Table 1A): 16905 cpm
3H-thymidine uptake ([4]; 0.001 μg/ml, Table 1A): 15970 cpm
3H-thymidine uptake ([4]; 0.01 μg/ml, Table 1A): 15399 cpm
3H-thymidine uptake ([4]; 0.1 μg/ml, Table 1A): 1637 cpm
3H-thymidine uptake ([4]; 1 μg/ml, Table 1A): 1477 cpm
inhibition at 0.0001 µg/mL ([4]; Mus musculus, Lymphocyte, 0.0001 μg/ml, Table 1A, read-out: Suppression): 9.1%
inhibition at 0.001 µg/mL ([4]; Mus musculus, Lymphocyte, 0.001 μg/ml, Table 1A, read-out: Suppression): 14.7%
inhibition at 0.01 µg/mL ([4]; Mus musculus, Lymphocyte, 0.01 μg/ml, Table 1A, read-out: Suppression): 18.1%
inhibition at 0.1 µg/mL ([4]; Mus musculus, Lymphocyte, 0.1 μg/ml, Table 1A, read-out: Suppression): 99.9%
inhibition at 1 µg/mL ([4]; Mus musculus, Lymphocyte, 1 μg/ml, Table 1A, read-out: Suppression): 100%
IC50 ([4]; Mus musculus, Lymphocyte, read-out: 50%-inhibition concentration (IC50) in mouse allogenic MLR): 0.025 µg/mL (≈ 0.06 µM)
cytotoxicity at 72 h ([5]; 0.1 μg/ml): 11%
cytotoxicity at 72 h ([5]; 1 μg/ml): 10.1%
cytotoxicity at 72 h ([5]; 10 μg/ml): 12.1%
Absorbancy (MOLT4; 0.1 μg/ml): 1.026 ± 0.026
Absorbancy (MOLT4; 1 μg/ml): 1.037 ± 0.027
Absorbancy (MOLT4; 10 μg/ml): 1.014 ± 0.055
